Values of other authors in patent US20160143876A1, “MAINTENANCE THERAPY REGIME/REGIMEN FOR THE TREATMENT OF ACNE” (GALDERMA RESEARCH & DEVELOPMENT, priority 2008, published 2016).

What was measured:
[1] = applied as monotherapy
acne = conditions: in vivo

Compound | Tolerability profile compared to other topical retinoids [1] | Patients who relapse after treatment (acne)
COc1ccc(-c2ccc3cc(C(=O)O)ccc3c2)cc1C12CC3CC(CC(C3)C1)C2 [Adapalene, 6-[3-(1-adamantyl)-4-methoxyphenyl]-2-naphtoic acid] | more favorable tolerability profile | 
CC1=C(/C=C/C(C)=C/C=C/C(C)=C\C(=O)O)C(C)(C)CCC1 [isotretinoin] |  | up to 21%
